Molecular target: T1, hyaluronidase
T1 construct: gene SPAM1; bovine testicular enzyme is the usual preparation
Assay: turbidimetric assay with CTAB, […] nm
Type: biochemical
Conditions: hyaluronic acid substrate, acetate buffer pH 4.5, 37 °C, 45 min

O=c1c(O)c(-c2ccc(O)c(O)c2)oc2cc(O)cc(O)c12 [quercetin (dihydrate)]
Inhibition of hyaluronidase activity / Positive control: 509.79 µg/mL

Reference: PMC8043927, “Mycelial culture extracts of selected wood-decay mushrooms as a source of skin-protecting factors” (Biotechnology Letters, 2021)
